Details of data set [1]: method as in Seymour et al., 2013; Vandenberg and Cory, 2013. The conditions noted are these: ref Seymour et al., 2013, Vandenberg and Cory, cited from earlier work.
Details of data set [2]: method as in Schoenwaelder et al., 2011. The conditions noted are these: in vivo; ref Schoenwaelder et al., 2011; cited from earlier work.
The next data set relates to hematologic malignancies. The conditions noted are these: preclinical researches; cited from earlier work.
The test system of data set [3] is Bcl-2. The conditions noted are these: cited from earlier work.
The next data set concerns Bcl-xl. The conditions noted are these: cited from earlier work.
A further data set has as its system T47D and BT549 cells. In words: Western blot of cleaved caspase-3 and cleaved PARP. In kind it is cell-based, human. The conditions noted are these: 48 h. On the procedure: (§1) After compound M1 treatment, cells were lysed with RIPA buffer supplemented with protease inhibitor (Selleck) on ice for 30 min following by centrifugation at 14,000 × g for 15 min. Protein concentrations of the lysates were determined by BCA assay kit. Equivalent amounts of cellular protein were separated by SDS-PAGE and transferred to polyvinylidene difluoride membranes. And then, the membranes were blocked with 5% skim milk in TBST. The membranes were incubated with primary antibodies and peroxidase-conjugated secondary antibodies. Finally, the membranes were visualized with an enhanced chemiluminescent detection kit.

Data set [4] concerns T47D cells. In words: Western blot of cytochrome c in mitochondrial and cytosol fraction. The conditions noted are these: 4 or 8 μM, 48 h. In kind it is cell-based, human. On the procedure:
as §1
In general terms: Immunoblotting shows a protein as a band on a membrane.

Data set [5] deals with MDA-MB-231, T47D, and BT549 cells. In words: CCK-8 cell viability, dose and time course in three breast cancer cell lines. In kind it is cell-based, human. The conditions noted are these: series of doses 72 h; time course at 5, 2, or 3 μM. As to the method: (§2) The human breast cancer cell line MDA-MB-231, T47D, and BT549, were purchased from Cell Bank of Chinese Academy of Sciences. MDA-MB-231 were cultured in L-15 medium with 10% FBS at 37°C with 100% air, and T47D were cultured in DMEM/High glucose medium with 10% FBS at 37°C with 5% CO2. BT549 was cultured in 1,640 medium with 10% FBS at 37°C with 5% CO2.
(§3) Cell viability was measured by Cell Counting Kit-8 (CCK-8) assay following the manufacturer's protocol. Cells were plated at 5 × 10^3 cells per well in 96-well plates. After compound M1 treatment, cells were incubated with 10 μL CCK-8 for 2 h at 37°C with 5% CO2. The results were determined at 450 nm wave length.

The test system of data set [6] is MDA-MB-231 cells. In words: Mitochondrial membrane potential (JC-1 staining). The format is cell-based, human. The conditions noted are these: 2 or 4 μM, 48 h. On the procedure: The MMP was measured using JC-1 assay kit according to the manufacturer's protocol. Cells were treated with 2 or 4 μM compound M1 for 48 h. The cells were cultured with JC-1 staining reagent (1x) at 37°C for 20 min. Cells were washed twice by JC-1 staining buffer. Next, the fluorescence intensity of JC-1 aggregate or monomer was observed by fluorescent microscopic. The ratio of aggregates to monomers was estimated as a symbol of mitochondrial membrane potential.

In data set [7] the test system is Bcl-2. In words: Western blot of Bcl-2 expression. The format is cell-based, human. The conditions noted are these: MDA-MB-231, T47D, and BT549 cells; different doses 48 h or 8 μM over time. On the procedure:
as §1

Data set [8] deals with MDA-MB-231 cells. In words: EdU incorporation assay. In kind it is cell-based, human. The conditions noted are these: 4 or 8 μM, 48 h. On the procedure: Cell Proliferation was measured by Cell Light EdU DNA Cell Proliferation Kit. Cells were plated in 96-well culture plates. Cells were treated with 4 or 8 μM compound M1 for 48 h. At the end of treatment, cells were incubated with EdU reagent for 2 h at 37°C. Four percent of paraformaldehyde was used to fix the cells for 15 min. Then, cells were incubated with 0.5% Triton X-100 for 30 min. Washed cells with PBS three times. After that, cells were dyed with reaction cocktail for 30 min, and stained cell nucleus with 5 μg/mL of Hoechst 33,342 for 30 min. Images were observed by fluorescent microscope.

In data set [9] the test system is MDA-MB-231 cells. In words: Cell viability CCK-8 assay. The format is cell-based. The conditions noted are these: Homo sapiens, 48 h. On the procedure:
as §2, §3

The target of data set [10] is recombinant human Bcl-2 protein (Homo sapiens, UniProt P10415). In words: Surface plasmon resonance (SPR) binding assay. As to the method: The interaction between virtual screening candidates and Bcl-2 was determined using a PlexArray HT biological molecular interaction analyzer (PLEXERA LLC, USA). Candidates were covalently immobilized to the surface of sensor chip following the standard coupling reaction guide. Candidates were dissolved in DMSO to a final concentration of 10 μM. To analyze binding signal, a set of concentration gradient (700, 350, 175, 87.5 nM) of Bcl-2 protein were, respectively, diluted with PBST (1x PBS + 0.1% Tween-20, pH 7.4). PBST was also used as running buffer and samples were injected into the flow cell chamber of the sensor chip one by another with rate of 2 μL/s for 300 s. After the injection stage, running buffer was flowed over the chip surface for 300 s at 2 μL/s to allow the bound analytes to dissociate from the Bcl-2. The response unit (RU) of sample dots on the chip surface was recorded by the interaction analyzer during the whole process. In this way, dissociation curves obtained. HBS-P buffer was used as vehicle controls. Lastly, the changes in RU and the binding curve were measured by the PlexeraDE software (PLEXERA LLC, USA).
(SPR reads the build-up and loss of mass on a sensor chip optically.)

Data set [11] relates to MDA-MB-231 cells. In words: Detection of reactive oxygen species (DCFH-DA). The format is cell-based, human. The conditions noted are these: 2 or 4 μM, 48 h. As to the method:
Cells were treated with 2 or 4 μM compound M1 for 48 h. After that, cells were rinsed twice with PBS and incubated with DCFH-DA (10 μmol/L) at 37°C in a darkroom. The fluorescence intensity of DCF was detected at an emission wavelength of 525 nm and excitation wavelength of 488 nm.

For data set [12], the system named is T47D cells. In words: Annexin V-FITC/PI apoptosis assay (flow cytometry). In kind it is cell-based, human. The conditions noted are these: 48 h. On the procedure: Cell apoptosis was measured by Annexin V-FITC/PI double-staining Kit following the manufacturer's protocol. After treatment with 8 or 16 μM compound M1 for 48 h, cells were washed twice with cold phosphate buffer saline and then, suspended in 100 μL binding buffer (BD CAT. NO.556547) with 5 μL Annexin-V (BD CAT. NO.556420) and 5 μL PI (BD CAT. NO.556463). And cells were gently vortexed and incubated at room temperature for 15 min in darkness for flow cytometric (Becton Dickison) analysis.
(Flow cytometry measures light scatter and fluorescence of single cells or particles in a stream.)

Data set [13] concerns MDA-MB-231 cells. In words: Clonogenic assay. The format is cell-based, human. The conditions noted are these: 4 or 8 μM, 48 h, then 10 days. As to the method:
The cells were plated at 200 cells per well in six-well culture plates followed by compound M1 for 48 h. At the end of treatment, the cells were cultured with fresh medium, and were grown at 37°C for 10 days. After colony formation, the cells were washed with PBS and immobilized by 4% formaldehyde at room temperature for 30 min. Finally, the cells were dyed with 0.5% crystal violet.

For data set [14] the following is noted: cited from earlier work.
The next data set deals with Mcl-1. The conditions noted are these: cited from earlier work.
[15] abbreviates: compound immobilized on chip, Bcl-2 protein 700 nM, read-out: KD, dissociation equilibrium constant.

pIC50, pKd: −log10 of the molar value. Where two headings read alike, the source gives them in different places. Some results are limits rather than exact numbers.

recombinant human Bcl-2 protein, sequence (P10415 whole entry): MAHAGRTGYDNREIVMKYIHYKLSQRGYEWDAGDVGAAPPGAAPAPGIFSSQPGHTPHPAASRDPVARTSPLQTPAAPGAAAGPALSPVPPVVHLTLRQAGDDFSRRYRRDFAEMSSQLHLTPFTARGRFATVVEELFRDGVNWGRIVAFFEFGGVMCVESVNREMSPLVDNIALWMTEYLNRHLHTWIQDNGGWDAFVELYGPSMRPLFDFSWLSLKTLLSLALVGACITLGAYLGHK

For `CC1(C)CCC(CN2CCN(c3ccc(C(=O)NS(=O)(=O)c4ccc(NCC5CCOCC5)c([N+](=O)[O-])c4)c(Oc4cnc5[nH]ccc5c4)c3)CC2)=C(c2ccc(Cl)cc2)C1` [ABT-199], the tumor lysis syndrome entry in [1] (patients with chronic lymphocytic leukemia) is “tumor lysis syndrome was caused”. In addition, in [1] (phase I trials), the “activity in patients with lymphoma” value is reported as “greater activity than ABT-263” and the “effects on platelet counts” value is recorded as “no significant effects on platelet counts”.
Turning to `CC1(C)CCC(c2ccc(Cl)cc2)=C(CN2CCN(c3ccc(C(=O)NS(=O)(=O)c4ccc(N[C@H](CCN5CCOCC5)CSc5ccccc5)c(S(=O)(=O)C(F)(F)F)c4)cc3)CC2)C1` [ABT-263], in data set [2], the thrombocytopenia entry is on record as “can cause thrombocytopenia”. Further, in the data set on hematologic malignancies, the “cytotoxicity against hematologic malignancies” value was “significant cytotoxicity”.
Turning to `CN(C)CC[C@H](CSc1ccccc1)Nc1ccc(S(=O)(=O)NC(=O)c2ccc(N3CCN(Cc4ccccc4-c4ccc(Cl)cc4)CC3)cc2)cc1[N+](=O)[O-]` [ABT-737], the thrombocytopenia result in [2] is reported as “can cause thrombocytopenia”. The “affinity with Bcl-2” value in the data set with Bcl-2 [3] was “high affinity”. In addition, in the data set on Bcl-xl, the “affinity with Bcl-xl” value was “high affinity”. For the same compound, in the data set on hematologic malignancies, the “cytotoxicity against hematologic malignancies” value is reported as “significant cytotoxicity”.
As usually defined, the pIC50 is −log10 of the IC50, conventionally taken in molar units. A higher pIC50 goes with a small IC50. Usually koff stands for a measure of how fast the partners let go of each other. As usually defined, the kon is the rate constant with which the complex forms. Usually pKd stands for the negative decadic logarithm of the Kd, by convention in mol/L. For the compound `COc1cc(N2C(C(C)=O)=NN(c3ccc(C)cc3)C2c2ccccc2OCc2ccccc2F)ccc1NC(=O)C(C)C` (stereo not drawn) [M1], the “cleaved PARP and cleaved caspase-3” value with T47D and BT549 cells was “increase”. The “release of cytochrome c from mitochondria to cytosol” value in the data set on T47D cells [4] was “increased the release of cytochrome c”. In addition, the “cell proliferation (cell viability)” value in [5] is “inhibits cell proliferation in concentration- and time- dependent”. Moreover, the “mitochondrial membrane potential (MMP)” value in the data set on MDA-MB-231 cells [6] is “caused the disturbance of MMP”. Further, the “protein expression of Bcl-2” value in the data set on Bcl-2 [7] is on record as “decreased the protein expression of Bcl-2”. In the data set with MDA-MB-231 cells [8], the EdU-positive cells entry was “reduced number of EdU-positive cells”. The compound also had a pIC50 with MDA-MB-231 cells [9] of 5.30. Moreover, the dissociation rate constant (koff) in data set [10] came to 0.00142 s⁻¹. Further, in [10], the kon was 4480 M⁻¹ s⁻¹. The pKd was 6.43 in data set [10] (M1, text and Figure 5B, read-out: KD); 6.50 in [10] (setting [15]). Moreover, the “level of generated ROS” value in the data set with MDA-MB-231 cells [11] was “elevation in the level of generated ROS”. In the data set with T47D cells [12], the “apoptosis (Annexin V staining)” value is given as “dose-dependent increase in apoptosis”. Moreover, in the data set with MDA-MB-231 cells [13], the clonogenicity entry is reported as “reduced in a dose-dependent manner”.
Compound `Cc1ccc(S(=O)(=O)N(Cc2ccc(Cl)cc2)c2ccccc2C(=O)Nc2ccccc2C(=O)NC(C)c2ccccc2)cc1` (stereo not drawn) [M2] showed a pIC50 with MDA-MB-231 cells [9] of under 4.30. Besides, in data set [10] (setting [15]), the negative logarithm of the Kd (pKd) is 6.39.
In turn, `Cc1cc(C(=O)C2=C(O)C(=O)N(CCCN3CCOCC3)C2c2cccc(Oc3ccccc3)c2)ccc1OCc1ccccc1` (stereo not drawn) [M3] gave a pIC50 with MDA-MB-231 cells [9] of under 4.30. The pKd in data set [10] (setting [15]) was 6.07.
On to `COc1cc(-c2cc(-c3ccccc3)nc(SCC(=O)Nc3cc(Cl)ccc3C)c2C#N)ccc1OCc1ccccc1` [M4], for which the pIC50 in the data set on MDA-MB-231 cells [9] is under 4.30. Besides, the pKd in data set [10] (setting [15]) was 5.32.
For `Cc1ccc(S(=O)(=O)N(Cc2ccc(Cl)cc2)c2ccccc2C(=O)Nc2ccc(S(=O)(=O)Nc3ccc(F)cc3)cc2)cc1` [M5] the same measures were under 4.30 and 6.24.
In turn, `COc1ccc(/C=c2/sc3n(c2=O)C(c2ccc(Cl)cc2)C(C(=O)Nc2ccccc2)=C(C)N=3)cc1COc1ccc(F)cc1F` (stereo not drawn) [M6] showed a pIC50 in the data set with MDA-MB-231 cells [9] of under 4.30. Besides, in [10] (setting [15]), the pKd was 7.16.
`CCN(CC)c1ccc(N2C(C(C)=O)=NN(c3ccc(Cl)cc3)C2c2ccccc2OCc2ccc(Cl)cc2Cl)cc1` (stereo not drawn) [M7]: in the data set on MDA-MB-231 cells [9], the pIC50 was under 4.30. In addition, the pKd in data set [10] (setting [15]) is 5.80.
For `CCOc1cccc(C2N(c3ccccc3)N=C(C(C)=O)N2c2ccc(N3CCOCC3)c(Cl)c2)c1OCc1ccc(Cl)cc1Cl` (stereo not drawn) [M8], in that order: under 4.30 and 4.97.
Turning to AT-101, the “affinity with Bcl-2” value in the data set on Bcl-2 [3] was “submicromolar concentrations”. Also, the “affinity with Bcl-xl” value with Bcl-xl was “submicromolar concentrations”. The clinical activity entry in data set [14] (early phase II trials, monotherapy or combination, lung and prostate cancers, ref Ready et al., 2011) is reported as “failed to exert significant clinical activity”. For the same compound, in data set [14] (ref Liu et al., 2009), the tolerability in patients entry is listed as “well-tolerated”. The “affinity for Mcl-1” value in the data set on Mcl-1 is recorded as “submicromolar concentrations”.

Source of the values: paper PMC6478794, “Identification of a Novel Bcl-2 Inhibitor by Ligand-Based Screening and Investigation of Its Anti-cancer Effect on Human Breast Cancer Cells” (Frontiers in Pharmacology, 2019).
